Data reported in paper PMC4778918, “Signal Transduction at the Domain Interface of Prokaryotic Pentameric Ligand-Gated Ion Channels” (PLoS Biology, 2016).
Where “and” joins values, the source holds several entries; their conditions need not be identical. Equal entries are not always repeated. Where two headings read alike, the source gives them in different places.

What was measured:
[1] = biological target: ELIC R91A/Y258A (Dickeya chrysanthemi, UniProt P0C7B7, R91A/Y257A); assay: biochemical; type: binding, Erwinia chrisanthemi; conditions: read-out: Keff
[2] = biological target: T1, ELIC T28D (Dickeya chrysanthemi, UniProt P0C7B7, INS163G/T28D); assay: biochemical; type: binding, Erwinia chrisanthemi; conditions: ITC
[3] = biological target: ELIC R91A (Dickeya chrysanthemi, UniProt P0C7B7, INS163G/R91A); assay: biochemical; type: binding, Erwinia chrisanthemi; conditions: read-out: Keff
[4] = biological target: ELIC R91A/F116A (Dickeya chrysanthemi, UniProt P0C7B7, F116A/R91A); assay: biochemical; type: binding, Erwinia chrisanthemi; conditions: read-out: Keff
[5] = biological target: T2, ELIC WT (Dickeya chrysanthemi, UniProt P0C7B7, INS163G); assay: Two-electrode voltage clamp dose-response, ELIC WT in X. laevis oocytes; type: cell-based, Erwinia chrisanthemi; conditions: 0.5 mM Ca2+, mean of 4 oocytes
Text: X. laevis oocytes were obtained either from Ecocyte or from an in-house facility. Animal procedures and preparation of oocytes followed standard procedures and were in accordance with the Swiss Cantonal and Federal legislation relating to animal experimentation. Plasmid DNA containing the genes coding for the respective constructs for expression in X. laevis oocytes were linearized by MluI, and capped mRNA was transcribed with the mMessage mMachine kit (Ambion) and purified with the RNeasy kit (Qiagen). 10–200 ng of mRNA was injected into defolliculated X. laevis oocytes, which were subsequently incubated in Barth’s solution (88 mM NaCl, 1 mM KCl, 1 mM CaCl2, 0.33 mM Ca(NO3)2, 0.82 mM MgSO4, 10 mM Na-Hepes (pH 7.4) and 50 μg / ml Gentamycin) and stored at 16°C. One to three days after injection, two-electrode voltage clamp measurements were performed at 20°C (OC-725B, Warner Instrument Corp.). For ELIC, maximal currents were recorded in a bath solution containing 10 mM Hepes (pH 7), 130 mM NaCl, 2 mM KCl, 0.5 mM CaCl2 and either 5 mM or 25 mM Cysteamine. For GLIC, the maximal currents were recorded in a bath solution containing 10 mM Citrate (pH 4), 130 mM NaCl, 2 mM KCl, 1.8 mM CaCl2 and 1 mM MgCl2. Dose-response experiments were carried out at agonist concentrations indicated in the respective figures. Voltage was clamped at −40 mV, and data was filtered at 20 Hz unless stated otherwise. Surface expression in constructs containing an HA-tag was assayed after electrophysiological characterization as described. For that purpose, the oocytes were placed in a 96-well plate (TPP) and incubated in ND96 solution (93.5 mM NaCl, 2 mM KCl, 1.8 mM CaCl2, 2 mM MgCl2 and 10 mM Hepes, pH 7.4) containing 1% BSA for at least 30 min. All steps were carried out at 4°C with the same buffer unless mentioned otherwise. Oocytes were subsequently transferred into buffer containing 1 μg/ml rat monoclonal anti-HA antibody (3F10, Roche) for 1 h, washed 3 times and incubated with buffer containing 0.16 μg/ml horseradish peroxidase (HRP) coupled to a secondary antibody (HRP-conjugated goat anti-rat F(Ab)2 fragments, Jackson) for 30–60 min. The oocytes were washed 5 times with ND96 solution and subsequently transferred to a white 96-well plate (flat bottom, Nunclon Delta Surface). The solution was aspirated, 30 μl of Super Signal ELISA femto solutions 1 and 2 (Pierce) was added, and luminescence was quantitated with a Tecan infinite M1000 plate reader.

[6] = biological target: ELIC L29A (Dickeya chrysanthemi, UniProt P0C7B7, INS163G/L29A); type: cell-based, Erwinia chrisanthemi; conditions: 0.5 mM Ca2+, mean of 3 oocytes
Text: (§1) X. laevis oocytes were obtained either from Ecocyte or from an in-house facility. Animal procedures and preparation of oocytes followed standard procedures and were in accordance with the Swiss Cantonal and Federal legislation relating to animal experimentation. Plasmid DNA containing the genes coding for the respective constructs for expression in X. laevis oocytes were linearized by MluI, and capped mRNA was transcribed with the mMessage mMachine kit (Ambion) and purified with the RNeasy kit (Qiagen). 10–200 ng of mRNA was injected into defolliculated X. laevis oocytes, which were subsequently incubated in Barth’s solution (88 mM NaCl, 1 mM KCl, 1 mM CaCl2, 0.33 mM Ca(NO3)2, 0.82 mM MgSO4, 10 mM Na-Hepes (pH 7.4) and 50 μg / ml Gentamycin) and stored at 16°C. One to three days after injection, two-electrode voltage clamp measurements were performed at 20°C (OC-725B, Warner Instrument Corp.). For ELIC, maximal currents were recorded in a bath solution containing 10 mM Hepes (pH 7), 130 mM NaCl, 2 mM KCl, 0.5 mM CaCl2 and either 5 mM or 25 mM Cysteamine. […] Dose-response experiments were carried out at agonist concentrations indicated in the respective figures. Voltage was clamped at −40 mV, and data was filtered at 20 Hz unless stated otherwise.

[7] = biological target: ELIC ΔL29 (Dickeya chrysanthemi, UniProt P0C7B7, DEL29-29/INS163G); type: cell-based, Erwinia chrisanthemi; conditions: ELIC woL29 (deletion of Leu29), 0.5 mM Ca2+, mean of 4 oocytes
Text: as §1

[8] = biological target: ELIC T28A (Dickeya chrysanthemi, UniProt P0C7B7, INS163G/T28A); type: cell-based, Erwinia chrisanthemi; conditions: for I/Imax mean: ELIC T28A, 0.5 mM Ca2+, mean of 4 oocytes
Text: as §1

[9] = biological target: ELIC P254A (Dickeya chrysanthemi, UniProt P0C7B7, P253A); type: cell-based, Erwinia chrisanthemi
Text: as §1

[10] = biological target: T1, ELIC T28D; type: cell-based, Erwinia chrisanthemi; conditions: 0.5 mM Ca2+, mean of 5 oocytes
Text: as §1

[11] = biological target: T2, ELIC WT; assay: biochemical; type: binding, Erwinia chrisanthemi
[12] = biological target: ELIC resting state; conditions: kinetic analysis of single channel recordings of ELIC; read-out: dissociation constant to the resting state; cited from earlier work
[13] = system: ELIC; design: method as in PMID 21713033; conditions: two-electrode voltage clamp recordings, ELIC WT, in the absence of Ca2+; cited from earlier work
[14] = biological target: ELIC double mutant R91A/Y258A; assay: SEC
[15] = biological target: ELIC ligand binding site mutant R91A; assay: SEC
[16] = biological target: the molecule itself; assay: SEC; gel filtration on Superdex 200 at 4°C in buffer with 0.145% UDM after removal of His10-MBP; pentamer peak pooled for ITC
[17] = biological target: the molecule itself; assay: SEC

For `CC(=O)OCC[N+](C)(C)C` [acetylcholine], the Kd [1] was 2 mM, the “binding of the antagonist compared to WT” value ([2]; ELIC T28D versus WT) was “unchanged” and the Kd [3] was 1.4 mM. It also gave a Kd [4] of 1.8 mM.

With `NCCS` [cysteamine] the I/Imax mean ([5]; conc cys. 0.1 (mM)) was 0.00, the I/Imax mean ([5]; conc cys. 0.25 (mM)) was 0.00655 and the I/Imax mean ([5]; conc cys. 0.5 (mM)) was 0.09. The I/Imax mean ([5]; conc cys. 0.75 (mM)) was 0.32, the I/Imax mean ([5]; conc cys. 1 (mM)) was 0.54 and the I/Imax mean ([5]; conc cys. 5 (mM)) was 1.00. For the same molecule, the I/Imax mean ([6]; conc cys. 0.1 (mM)) was 0.16, the I/Imax mean ([6]; conc cys. 0.25 (mM)) was 0.69 and the I/Imax mean ([6]; conc cys. 0.35 (mM)) was 0.79. The I/Imax mean ([6]; conc cys. 0.5 (mM)) was 0.88, the I/Imax mean ([6]; conc cys. 0.75 (mM)) was 1.00 and the I/Imax mean ([7]; conc cys. 0.25 (mM)) was 0.10. It also gave an I/Imax mean ([7]; conc cys. 0.5 (mM)) of 0.43, an I/Imax mean ([7]; conc cys. 0.75 (mM)) of 0.64 and an I/Imax mean ([7]; conc cys. 1 (mM)) of 0.86. For the same molecule, the I/Imax mean ([7]; conc cys. 2.5 (mM)) was 1.00, the “EC50 higher than WT” value ([8]; ELIC T28A versus WT, two-electrode voltage clamp) was 3.5 fold and the I/Imax mean ([8]; conc cys. 1.00 (mM)) was 0.0138. The I/Imax mean ([8]; conc cys. 2.50 (mM)) was 0.34, the I/Imax mean ([8]; conc cys. 5.00 (mM)) was 0.56 and the I/Imax mean ([8]; conc cys. 10.00 (mM)) was 0.83. For the same molecule, the I/Imax mean ([8]; conc cys. 25.00 (mM)) was 1.00, the “I/Imax mean” value ([9]; conc cys. 0.25 (unit not given)) was 0.0189 and the “I/Imax mean” value ([9]; conc cys. 0.5 (unit not given)) was 0.14. For the same molecule, the “I/Imax, single oocyte” value ([9]; conc cys. 0.5 (unit not given), listed as cys.) was 0.13 and 0.12 and 0.19, the “I/Imax mean” value ([9]; conc cys. 0.75 (unit not given)) was 0.41 and the “I/Imax, single oocyte” value ([9]; conc cys. 0.75 (unit not given), listed as cys.) was 0.33 and 0.45 and 0.39 and 0.42. For the same molecule, the “I/Imax mean” value ([9]; conc cys. 1 (unit not given)) was 0.51, the “I/Imax, single oocyte” value ([9]; conc cys. 1 (unit not given), listed as cys.) was 0.42 and 0.56 and 0.47 and the “I/Imax mean” value ([9]; conc cys. 2.5 (unit not given)) was 0.90. For the same molecule, the “I/Imax, single oocyte” value ([9]; conc cys. 2.5 (unit not given), listed as cys.) was 0.82 and 0.97 and 0.85 and 0.95 and 0.92, the “I/Imax mean” value ([9]; conc cys. 5 (unit not given)) was 1.00 and the “I/Imax, single oocyte” value ([9]; conc cys. 5 (unit not given)) was 1.00. It also gave an I/Imax mean ([10]; conc cys. 0.01 (mM)) of 0.13, an I/Imax mean ([10]; conc cys. 0.025 (mM)) of 0.63 and an I/Imax mean ([10]; conc cys. 0.05 (mM)) of 0.96. For the same molecule, the I/Imax mean ([10]; conc cys. 0.1 (mM)) was 1.00.

In the case of `CCCN` [propylamine], the “Keff (ITC) higher than EC50 (two-electrode voltage clamp)” value [11] is reported as “about 20 fold”, the Kd ([11]; ITC, ELIC WT in detergent (UDM), 4°C, single-site isotherm, read-out: effective dissociation constant (Keff)) is reported as 8 mM and the Kd ([1]; ITC, ELIC double mutant R91A/Y258A, 4°C) is reported as 0.9 mM. The Kd [12] was 7.1 mM, the EC50 [13] was 0.45 mM and the “decrease in Keff concentration compared to WT” value ([2]; ELIC T28D versus WT) was 90 fold. It also gave a Kd ([2]; ELIC mutant T28D, agonist, read-out: Keff) of 0.09 mM, a Kd ([3]; ITC, ELIC ligand binding site mutant R91A, 4°C) of 1.1 mM and a Kd ([4]; ITC, ELIC double mutant R91A/F116A, 4°C) of 0.8 mM.

“ELIC double mutant R91A/Y258A (receptor)” showed a stoichiometry N [14] of 5.

Molecule “ELIC ligand binding site mutant R91A (receptor)” has a stoichiometry N [15] of 5.

B1: ELIC wild type (receptor)
chain: APADNAADARPVDVSVSIFINKIYGVNTLEQTYKVDGYIVAQWTGKPRKTPGDKPLIVENTQIERWINNGLWVPALEFINVVGSPDTGNKRLMLFPDGRVIYNARFLGSFSNDMDFRLFPFDRQQFVLELEPFSYNNQQLRFSDIQVYTENIDNEEIDEWWIRKASTHISDIRYDHLSSVQPNQNEFSRITVRIDAVRNPSYYLWSFILPLGLIIAASWSVFWLESFSERLQTSFTLMLTVVAYAFYTSNILPRLPYTTVIDQMIIAGYGSIFAAILLIIFAHHRQAMGVEDDLLIQRCRLAFPLGFLAIGCVLVIRGITL
notes: ELIC, prokaryotic pentameric ligand-gated ion channel; GenBank WP_013319743 printed; Homopentamer; purified for ITC with small-molecule ligands; also called ELIC WT; source: E. coli BL21-DE3, purified (extracted in UDM, Ni-NTA, HRV 3C cleavage, Superdex 200 gel filtration); not shown: His10, N-terminal, cleaved
With B1 the “stoichiometry N” value [16] was 5.

B2: ELIC double mutant R91A/F116A (receptor)
chain: APADNAADARPVDVSVSIFINKIYGVNTLEQTYKVDGYIVAQWTGKPRKTPGDKPLIVENTQIERWINNGLWVPALEFINVVGSPDTGNKALMLFPDGRVIYNARFLGSFSNDMDARLFPFDRQQFVLELEPFSYNNQQLRFSDIQVYTENIDNEEIDEWWIRKASTHISDIRYDHLSSVQPNQNEFSRITVRIDAVRNPSYYLWSFILPLGLIIAASWSVFWLESFSERLQTSFTLMLTVVAYAFYTSNILPRLPYTTVIDQMIIAGYGSIFAAILLIIFAHHRQAMGVEDDLLIQRCRLAFPLGFLAIGCVLVIRGITL
notes: source: E. coli BL21-DE3, purified (extracted in UDM, Ni-NTA, HRV 3C cleavage, Superdex 200 gel filtration)
With B2 the “stoichiometry N” value [17] was 5.
